For data set [1], the system named is primary cortical neurons. Nature of the data set: Neuroprotection against H2O2-induced oxidative stress (MTS assay), comparison with known neuroprotectants. It counts as cell-based, rat. The following applies: 24 h pre-treatment, harsh H2O2 treatment (150 μM). On the procedure:
Twice, half the amount of medium was replaced with fresh neurobasal medium containing no antioxidants. […] The other known neuroprotectants were dissolved in appropriate solvents and diluted to the final concentrations as indicated. […] Each assay was performed in triplicate. After 24 hours, the cultures were evaluated for viability and mitochondrial function using a standard MTS Assay (Promega). The manufacturer's protocols were followed. Experiments were carried out in accordance with the above study design. […] Ginkgo biloba was dissolved in dH2O at a concentration of 6 mg/ml, and further diluted in the neurobasal medium to final concentrations of 2.5 μ/ml, 5 μg/ml, 25 μg/ml, and 250 μg/ml. […] The plates were returned to the incubator at 37° C. with 5% CO2 for one hour. Subsequently, 20 μl MTS reagent was added to each well and the plates were incubated at 37° C. with 5% CO2 for an additional two hours. The absorbance at 490 nm for each well was recorded with the BioRad plate reader (Model 550). Wells containing medium alone were used as blanks. Each data point is the average of three separate assay wells. […] Two-week-old primary cultures were used for this set of study.
A general note: Tetrazolium assays rely on reduction of a dye to a coloured formazan, in cell work by metabolically active cells.

The subject of data set [2] is cortical neurons. As to conditions: for protection from neuronal cell death (morphology): 5 μM, hypoxia.
Experimental: Experiments were performed in a 96-well plate format. Cortical neurons were seeded at a density of 50,000 cells/well on a poly-D-lysine coated surface, and cultured in serum-free medium (NB plus B27 supplement) to obtain cultures highly enriched for neurons. Neurons were cultured for over 14 d.i.v. to increase cell susceptibility to excitatory amino acids (Jiang et al., 2001). Six replicate wells were treated as a group to facilitate assay quantitation.
Treatment with drug was continued during and subsequent to a 24-hour period of hypoxia. Cellular morphology and function (MTS and LDH assays) were measured 24 or 48 hours subsequent to the hypoxic insult.
The MTS assay is a colorimetric assay that measures the mitochondrial function in metabolically active cells. This measurement indirectly reflects cell viability. […] 20 μl of MTS reagent (Promega) are added to each well of the 96 well assay plates containing the samples in 100 μl of culture medium. The plate is then incubated in a humidified, 5% CO2 atmosphere at 37° C. for 1-2 hours until the color is fully developed. The absorbance at 490 nm was recorded using a Bio-Rad 96 well plate reader.
The lactate dehydrogenase (LDH) assay is based on the reduction of NAD by the action of LDH. The resulting reduced NAD (NADH) is utilized in the stoichiometric conversion of a tetrazolium dye. If cell-free aliquots of medium from cultures given different treatments are assayed, then the amount of LDH activity can be used as an indicator of relative cell death as well as a function of membrane integrity. A 50 μl aliquot of culture medium from a well in tested 96-well plate is transferred into a well in unused plate and supplemented with 25 μl of equally-mixed Substrate, Enzyme and Dye Solutions (Sigma). The preparation is incubated at room temperature for 20-30 minutes, and then measured spectrophotometrically at wavelength of 490 nm.
In data set [3] the test system is co-cultured cortical and striatal neurons. The experiment in a line: Protection from Aβ1-42 or Aβ25-35 induced neurotoxicity (morphology, LDH, MTS).
Experimental: Experiments were performed in a 96-well plate format. Cortical neurons were seeded at a density of 50,000 cells/well on poly-D-lysine coated surface, and cultured in serum-free medium (NB plus B27 supplement containing AO or without AO) to obtain cultures high enriched for neurons. Neurons were cultured for over 14 d.i.v. to increase cell susceptibility to excitatory amino acids (Jiang et al., 2001, supra). Three to six replicate wells were treated as a group to facilitate assay quantitation.
Lyophilized Aβs were dissolved in de-ionized and distilled water to a final concentration of 400 μM, and aliquoted and stored at −20° C. Before use, an aliquot of Aβ was removed from freezer and incubated at 37° C. for 48 hours. Neurons were cultured in NB with B27 supplement containing AO or without AO under 5% CO2 and 95% ambient air, 37° C. At 2 or 3 weeks, the neurons were treated with pre-incubated Aβ and either non-incubated Aβ or Aβ35-25 served as experimental controls.
Treatment with 2μM PAN-811 or 1:12,500 PEG:EtOH (7:3 as vehicle control) was started by at most 3 hours following Aβ insult. The neurons remained in culture post-treatment for different time periods, from 1 to 16 days.
Neuronal cell death was morphologically evaluated.
The MTS assay is a colorimetric assay that measures the mitochondrial function in metabolically active cells. This measurement indirectly reflects cell viability. […] 10 μl of MTS reagent (Promega) are added to each well of the 96 well assay plates containing the samples in 50 μl of culture medium. The plate is then incubated in a humidified, 5% CO2 atmosphere at 37° C. for 1 hour until the color is fully developed. The absorbance at 490 nm was recorded using a Bio-Rad 96 well plate reader.
Lactate dehydrogenase (LDH) assay is based on the reduction of NAD by the action of LDH. The resulting reduced NAD (NADH) is utilized in the stoichiometric conversion of a tetrazolium dye. If cell-free aliquots of medium from cultures given different treatments are assayed, then the amount of LDH activity can be used as an indicator of relative cell death as well as a function of membrane integrity. A 35μl aliquot of culture medium from a well in a 96-well test plate is transferred into a well in unused plate and supplemented with 17.5 μl of equally mixed Substrate, Enzyme and Dye Solutions (Sigma). The preparation is incubated at room temperature for 30 minutes, and then measured spectrophotometrically at a wavelength of 490 nm.
Primary neurons were isolated from cortex and striatum of 17-day-old rat embryonic brain and seeded on 96-well plates at 50,000 cells/well in regular neurobasal medium (Neurobasal Medium supplemented with B27-AO) for 2-3 weeks.
Lyophilized Aβ1-42 and Aβ25-35 were dissolved in distilled, deionized water to a final concentration of 400 uM. Aliquots of the preparations were stored at −20° C. The day before the experiment, the peptides were shifted from −20° C. to 37° C. and incubated overnight at 37° C.
The neurons at 12-16 d.i.v. and 21-23 d.i.v. were insulted by adding 2.5 ul per well of either 400 uM Aβ1-42 or 400 uM Aβ25-35 (final concentration: 10 uM). Untreated and Aβ35-25-treated wells were taken as negative controls and 25 uM glutamate treated wells were set as the positive control. At the same time as or 2-3 hours after the initiation of Aβ insults, 1:5000 diluted PEG:EtOH (vehicle for PAN-811) as well as PAN-811 at concentrations of 0.25, 05., 1 and 2 μM were added to the Aβ insulted wells. The neurons were continuously incubated at 37° C., 5% CO2. Data were obtained from the readings of 3-6 replicate wells.
The test system of data set [4] is primary cortical neurons. The experiment in a line: ROS generation in neuronal cells (c-DCF fluorescence). It counts as cell-based, rat. As to conditions: 10 μM. On the procedure: Twice, half the amount of medium was replaced with fresh neurobasal medium without antioxidants. […] Untreated cells loaded with the dye were used as controls to calculate the c-DCF fluorescence change. Each assay was performed in triplicate. The c-DCF fluorescence at 485/520 nm (Ex/Em) for each well was recorded with the BMG Polar Star plate reader. Wells containing cells without dye were used as blanks. Each data point is the average of three separate assay wells. Untreated cells loaded with the dye were used as a control to calculate the c-DCF fluorescence change. Two-week-old primary cultures were used for the study. CM-H2DCFDA is a cell-permeant indicator for reactive oxygen species (ROS), which is non-fluorescent until the acetate groups are removed by intracellular esterases and oxidation occurs within the cell. It has been widely employed to detect the generation of ROS in cells and animals. Here, it has been used as a tool to assess the effects of PAN-811 on ROS generation in neuronal cells following the procedures described in this example. […] Experiments were repeated four times in different batches of cells and similar results were obtained. See FIG. 2 for the representative experiment.

Data set [5] can be described thus: Solubility of PAN-811 in solvents. The following applies: PEG-300/EtOH vs EtOH.
For data set [6], the system named is cortical neurons. As to conditions: for protection (Comments): 24 h pre-treatment, 6 h H/H, 24 h post, culture age 15 days, test range started from 5 μM.
Experimental: (§1) Experiments were performed in a 96-well plate format. Cortical neurons were seeded at a density of 50,000 cells/well on a poly-D-lysine coated surface, and cultured in serum-free medium (NB plus B27 supplement) to obtain cultures highly enriched for neurons. […] Six replicate wells were treated as a group to facilitate assay quantitation.
(§2) The extreme H/H model (0.4 mM glucose) is a mimic of the environment in the central core of an infarct; the mild H/H model (1.63 mM glucose) is a mimic of the environment in the penumbra during MCAO; and the hypoxia only model (neurons in normal in vitro glucose concentration—25 mM) is a mimic of the environment in the penumbra after reperfusion since the possible cell death after reperfusion is predominantly a result of the hypoxic effect rather then energy failure.
Hypoxia/hypoglycemia was obtained by reducing glucose concentration down to 0.4 mM and 1.63 mM for extreme H/H and mild H/H, respectively. BSS (116.0 mM NaCl, 5.4 mM KCl, 0.8 mM MgSO4.e7H20, 1.0 mM NaH2PO4, 1.8 mM CaCl2.2H2O, 26.2 mM NaHCO3, and 0.01 mM glycine) or BSS with 25 mM glucose were de-gassed for 5 minutes prior to use. Culture medium in the plates for hypoxia was replaced with BSS or BSS with glucose. Meanwhile, culture medium in the plates for normoxia was replaced with non de-gassed BSS or BSS with glucose. Cells were committed to hypoxic conditions by transferring the plates into a sealed container (Modular Incubator Chamber-101™, Billups-Rothenberg, Inc.), applying a vacuum for 20 minutes to remove oxygen or other gases from the culture medium, and then refilling the chamber with 5% CO2 and 95% N2 at a pressure of 30 psi for 1 minute. The level of O2 in the chamber was determined to be zero with an O2 indicator (FYRITE Gas Analyzer, Bacharach, Inc.). Culture plates were maintained in the chamber for 6 hours. As an experimental control, duplicate culture plates were maintained under normal culture condition (5% CO2 and 95% ambient air) for the same duration. After a 6-hour treatment, plates were removed from the chamber and the medium in both the hypoxic and normoxic cultures was replaced with a termination solution (DMEM supplemented with 1×sodium pyruvate, 10.0 mM HEPES, and 1×N2 supplement) containing 25 mM glucose and cultured in 5% CO2 and 95% ambient air conditions. […] MK801 was utilized as a positive control. Mitochondrial function and cell death were evaluated at 24 or 48 hours post H/H insult with the MTS and LDH analyses (see below).
The MTS assay is a colorimetric assay that measures the mitochondrial function in metabolically active cells. This measurement indirectly reflects cell viability. […] The absorbance at 490 nm was recorded using a Bio-Rad 96 well plate reader. […]
In data set [7] the test system is enriched neuronal cultures (cerebellar tissue). Nature of the data set: In vitro models of excitotoxicity (H/H, glutamate, staurosporine, veratridine), MTT assay.
Experimental: Enriched neuronal cultures were prepared from 15-day-old Sprague-Dawley rat embryos. Using aseptic techniques, the rat embryos were removed from the uterus and placed in sterile neuronal culture medium. Using a dissecting microscope, the brain tissue was removed from each embryo, with care taken to discard the meninges and blood vessels. The cerebellum was separated by gross dissection under the microscope, and only cerebellar tissue was used for the culture. Cells were dissociated by trituration of the tissue and were plated at a density of 5×10^5 cells/well onto 48-well culture plates precoated with poly(L-lysine). Cultures were maintained in a medium containing equal parts of Eagle's basal medium (without glutamine) and Ham's F-12k medium supplemented with 10% heat-inactivated horse serum, 10% fetal bovine serum, 600 μg/ml glucose, 100 μg/ml glutamine, 50 U/ml penicillin, and 50 μg/ml streptomycin. After 48 h, 10 μM cytosine arabinoside was added to inhibit non-neuronal cell division. Cells were used in experiments after 7 days in culture.
Four in vitro models of excitotoxicity were studied. Cells were either exposed to H/H conditions for 3 hrs or treated for 45 min with one of glutamate (100 μM), staurosporine (1 μM) or veratridine (10 μM). All cells were co-treated with or without PAN-811 (10 μM) in Locke's solution. At the conclusion of the respective excitotoxic exposures, the condition medium (original) was replaced. H/H was induced by incubating the cells in a humidified airtight chamber saturated with 95% nitrogen, 5% CO2 gas for 3 hrs in Locke's solution without added glucose.
Twenty-four hours after the excitotoxic insult, cell viability assessments were made. Cell damage was quantitatively assessed using a tetrazolium salt colorimetric assay with 3-(4,5-dimethylthiazol-2-yl)-2,5-diphenyltetrazolium (MTT; Sigma Chemical Co., St. Louis, Mo.). Briefly, the dye was added to each well (final concentration, 1.5 mg/ml), cells were incubated with MTT-acidified isopropanol (0.1 N HCl in isopropanol), and the absorbance intensity (540 nm) of each sample was measured in a 96-well plate reader. Values are expressed relative to vehicle-treated control cells that were maintained on each plate, and the percentage change in cell viability was calculated.
Data set [8] concerns primary cortical neurons. Nature of the data set: Protection of neurons from H2O2-induced oxidative stress (60-70 μM H2O2, MTS assay). It counts as cell-based, rat. The following applies: 1-10 μM, 24 h pre-treatment, H2O2 60-70 μM. As to the method: Twice, half amount of medium was replaced with fresh neurobasal medium containing no antioxidants. […] Each assay was performed in triplicate. […] After 24 hours, the cultures were evaluated for viability and mitochondrial function using a standard MTS Assay (Promega). The manufacturer's protocols were followed. […] The plates were put back into the incubator at 37° C. with 5% CO2 for one hour, then 20 μl MTS reagent was added to each well and plates were incubated at 37° C. with 5% CO2 for an additional two hours. The absorbance at 490 nm for each well was recorded with the BioRad plate reader (Model 550). Wells containing media alone were used as blanks. Each data point is the average of three separate assay wells. […] Three-week-old primary cultures were used for this set of study. Experiments were carried out following the same procedures as experiment 1. Two-week-old primary cultures were used for this study.

For data set [9], the system named is enriched neuronal cultures (cerebellar tissue). Nature of the data set: Neurotoxicity of PAN-811, 24 h treatment (MTT assay). The following applies: highest concentration tested (100 μM).
Experimental: Enriched neuronal cultures were prepared from 15-day-old Sprague-Dawley rat embryos. Using aseptic techniques, the rat embryos were removed from the uterus and placed in sterile neuronal culture medium. Using a dissecting microscope, the brain tissue was removed from each embryo, with care taken to discard the meninges and blood vessels. The cerebellum was separated by gross dissection under the microscope, and only cerebellar tissue was used for the culture. Cells were dissociated by trituration of the tissue and were plated at a density of 5×10^5 cells/well onto 48-well culture plates precoated with poly(L-lysine). […]
Cells were treated with varying amounts of PAN-811 (0-100 μM) for 24 hrs. Cell viability was determined in the MTT assay.
Cell damage was quantitatively assessed using a tetrazolium salt colorimetric assay with 3-(4,5-dimethylthiazol-2-yl)-2,5-diphenyltetrazolium (MTT; Sigma Chemical Co., St. Louis, Mo.). Briefly, the dye was added to each well (final concentration, 1.5 mg/ml), cells were incubated with MTT-acidified isopropanol (0.1 N HCl in isopropanol), and the absorbance intensity (540 nm) of each sample was measured in a 96-well plate reader. Values are expressed relative to vehicle-treated control cells that were maintained on each plate, and the percentage change in cell viability was calculated.
The test system of data set [10] is cortical neurons. The experiment in a line: Extreme hypoxia/hypoglycemia (H/H) model, 0.4 mM glucose.
Experimental: as §1, §2
Hypoxia/hypoglycemia was obtained by reducing glucose concentration down to 0.4 mM and 1.63 mM for extreme H/H and mild H/H, respectively. […] The level of O2 in the chamber was determined to be zero with an O2 indicator (FYRITE Gas Analyzer, Bacharach, Inc.). […] Mitochondrial function and cell death were evaluated at 24 or 48 hours post H/H insult with the MTS and LDH analyses (see below).
The MTS assay is a colorimetric assay that measures the mitochondrial function in metabolically active cells. […] The absorbance at 490 nm was recorded using a Bio-Rad 96 well plate reader. […]
Data set [11] deals with male Sprague-Dawley rats, middle cerebral artery occlusion.
Data set [12] deals with primary neurons from cortex and striatum. Nature of the data set: Neurotoxicity of Aβ peptides (morphology, LDH, MTS). It counts as cell-based, rat. As to conditions: for increase in LDH of the culture medium: 10 uM peptide, 16 day post-insult, neurons 12-16 d.i.v., 0% AO.
Where [13] appears, read: 2 μM, 100% +AO, 1 day post-insult.
Setting [14] is: 10 uM, 1-6 days post-insult, older neurons (21-23 d.i.v.), 90% AO.

Where “and” joins values, the source holds several entries; their conditions need not be identical. Identical values can stand only once. Entries after “also recorded” stand apart in the source; their conditions may differ. Like-named read-outs stand apart in the source and are kept apart here.

Consider `O=C(O)CCCC[C@@H]1CCSS1` (racemic) [lipoic acid, reference compound], for which the neuroprotective capacity entry in the data set with primary cortical neurons [1] (known neuroprotectants) is “minimal neuroprotective capacity”.

For `C[C@]12N[C@H](Cc3ccccc31)c1ccccc12` [MK801, reference compound], the “protection from neuronal cell death (morphology)” value with cortical neurons [2] is “efficient protection from neuronal cell death”.

Consider `NC(=S)N/N=C/c1ncccc1N` [PAN-811, 3-aminopyridine-2-carboxaldehyde thiosemicarbazone], for which, in the data set with primary cortical neurons [1] (PAN-811 1-10 μM), the neuroprotective capacity entry is on record as “good neuroprotective capacity; also recorded: significant neuroprotection”. For the same molecule, in data set [3] (2 μM post-treatment (2 or 3h later), 10 μM Aβ25-35, 90% AO), the “protection from Aβ25-35 induced neuronal cell death, 3-week old neurons” value is recorded as “well protected; also recorded: fully block”. In addition, in data set [3] (setting [13]), the “MTS reading, 7-week-old mixed neurons” value is reported as “slight reduction in the MTS reading” and the “morphology of neurons, 7-week-old mixed neurons” value is recorded as “well preserved the morphology of neurons”. Further, the “protection from neuronal cell death (morphology monitoring)” value in [3] (2μM, Aβ insult) is recorded as “efficient protection from neuronal cell death”. The “neuronal and neurite morphologies, younger neurons” value in data set [3] (2 μM, at the same time as or 3 hours after Aβ1-42 or Aβ25-35 insult, 12-16 days, 0% AO) was “well preserved neuronal and neurite morphologies”. The “Aβ1-42 or Aβ25-35 induced neurotoxicity, younger neurons” value in data set [3] (2 μM, neurons 12-16 d.i.v. (2-week old), 0% AO, 10 uM Aβ) is “fully block; also recorded: well protected”. Further, the “LDH reading, younger neurons” value in [3] (2 μM, same time or 2-3 hours post Aβ1-42 or Aβ25-35, day 16, 0% AO) is “down to a level lower than untreated (control) group”. For the same molecule, in data set [3] (0.25-2 uM, same time as or 2-3 hour after Aβ insult, 90% AO, 1-6 days), the “neuronal and neurite morphologies, older neurons” value is “well preserved neuronal and neurite morphologies”. Also, the “MTS reading, older neurons” value in [3] (0.25 to 1 μM, 3 hours after initiation of Aβ25-35 insult, 90% AO) is on record as “up to control level”. Besides, in [3] (0.25 to 2 μM, neurons 21-23 d.i.v., 90% AO), the “Aβ1-42 and Aβ25-35 induced neurotoxicity, older neurons” value was “fully blocked”. Besides, in [3] (administered 3 hours after initiation of Aβ25-35 insult), the “lowest dose giving full protection” value worked out at 0.25 µM. In the data set with primary cortical neurons [4], the “reduction of basal level of ROS generation” value is given as approximately 50%. In addition, the “reduction of H2O2-induced ROS generation” value with primary cortical neurons [4] (1 h, then 300 μM H2O2 for 2 h) is approximately 30%. The solubility entry in data set [5] is “better solubility in PEG-300/EtOH comparing to EtOH alone”. The “protection from mild H/H induced neurotoxicity” value with cortical neurons [6] (2 μM) is given as “completely protected”. Moreover, in the data set with cortical neurons [6] (5 μM, 24 h before and during 6-h H/H, MTS and LDH 17 h post insult), the “protection from H/H-induced mitochondria dysfunction and neuronal cell death” value is listed as “completely protected”. The “protection (Comments)” value with cortical neurons [6] (5 μM) is given as 5 μM: 100% protected. Besides, the “protection (Comments)” value in the data set with cortical neurons [6] (10 μM) was 10 μM: 100% protected. In addition, the “protection from damage by 3-hour hypoxia/hypoglycemia” value in [7] (10 μM PAN-811) stood at 92%. Besides, in data set [7] (10 μM PAN-811, 45 min insult), the “protection from 1 μM staurosporine” value was approximately 47%, the “protection from 10 μM veratridine” value is given as approximately 39% and the “protection from 100 μM glutamate” value is recorded as approximately 75%. The “protection from neuronal cell death (morphology)” value in the data set with cortical neurons [2] was “efficient protection from neuronal cell death”. Moreover, the “neuronal cell death after hypoxia” value with cortical neurons [2] (21 μM, 48 h prior, during 24-h hypoxia and 48 h after) is given as “completely blocked the cell death”. Moreover, the neuroprotective capacity result with primary cortical neurons [8] is “good neuroprotective capacity”. Moreover, the maximal toxicity in [9] came out at 7.8%. The “extreme H/H-induced neuronal cell death” value in the data set on cortical neurons [10] (100 μM) is “only partially blocked”. The “protection from neuronal cell death” value in the data set with cortical neurons [10] (≦50 μM, extreme H/H) was “did not protect neuronal cell death”. Moreover, the “Infarct volume, range” value in data set [11] (1 mg/kg IV 10 minutes prior to MCAO) was 42.36-387.08 mm^3. The “Infarct Volume (individual rat)” value in data set [11] (1 mg/kg IV 10 minutes prior to MCAO, 24 hours after surgery) was 42.36 mm^3 and 126.42 mm^3 and 143.74 mm^3 and 158.83 mm^3 and 196.18 mm^3 and 200.08 mm^3 and 218.54 mm^3 and 221.46 mm^3 and 224.32 mm^3 and 255.36 mm^3 and 267.40 mm^3 and 344.47 mm^3 and 375.59 mm^3 and 387.08 mm^3. Besides, the “Infarct Volume, mean” value in [11] (1 mg/kg IV 10 minutes prior to MCAO, 24 hours after surgery, n 14) is reported as 225.85 mm^3. This molecule also registered a rats that died in data set [11] (of the 7 rats that died (4 severe strokes, 3 with SAH), 6 were vehicle rats) of 1. Also, the tolerability entry in data set [11] (rat, in vivo) is “well tolerated and relatively non-toxic”.

For “Aβ1-42: amyloid beta peptide (Aβ1-42) from Sigma, used as neurotoxic insult”, the “increase in LDH of the culture medium” value in data set [12] is approximately 40%.

For the molecule “Aβ25-35: amyloid beta peptide fragment from Oncogene or Bachem, used as neurotoxic insult (GSNKGAIIGLM; Amyloid-beta protein 42; UniProt P05067 696-706, looked up, fragment)”, the “increase in LDH of the culture medium” value in data set [12] was approximately 40%. Moreover, in data set [12] (setting [14]), the “decrease in MTS reading” value turned out to be 7.5% and the “increase in medium LDH reading” value was 12-18%. The “concentration able to induce neurotoxicity” value in data set [12] (100% AO) is 80 µM.

Turning to Vitamin E [reference compound], in the data set with primary cortical neurons [1] (known neuroprotectants), the neuroprotective capacity entry is given as “minimal neuroprotective capacity”.
